The text below walks through data of article PMC8286840, “Identifying SARS-CoV-2 antiviral compounds by screening for small molecule inhibitors of Nsp3 papain-like protease” (Biochemical Journal, 2021).

Each structure is given as a SMILES string. Where a name gives a salt, the structure may show the parent alone. Read-outs that look alike come from different tables or passages of the source.

The target in experiment [1] is T1, SARS-CoV-2 PLpro (nsp3 1564–1878) (Severe acute respiratory syndrome coronavirus 2, UniProt P0DTD1). In words: biochemical. The note with it: read-out: % of control remaining. More on the design: FRET-quenched peptide (Pro3) cleavage by PLpro, 10 min pre-incubation, slope over 20 min, normalised to no-compound control.
Experiment [2] concerns the target T1, SARS-CoV-2 PLpro (nsp3 1564–1878). Put plainly: biochemical. More on the design: FRET-quenched peptide (Pro3) cleavage by PLpro, 10 min pre-incubation, slope over 20 min, normalised to no-compound control. The note with it: read-out: % of control remaining. This is another data set of the same source.

In the case of `Cc1cc2ncc(-c3ccccc3)nc2cc1C` [AG 1295], the remaining activity at 3.75 µM in experiment [1] (Well no.=2611, high concentration screen) is 97.7%. For the same molecule, the remaining activity at 1.25 µM in experiment [2] (Well no.=2611, low concentration screen) was found to be 97.5%.

Consider `COc1cc2ncc(-c3ccccc3)nc2cc1OC` [AG 1296], for which the remaining activity at 3.75 µM in experiment [1] (Well no.=2613, high concentration screen) stood at 90.5%. Also, the remaining activity at 1.25 µM in experiment [2] (Well no.=2613, low concentration screen) is 91.6%.

Turning to `COc1cc2ncnc(Nc3cccc(Cl)c3)c2cc1OC` [AG 1478], the remaining activity at 3.75 µM in experiment [1] (Well no.=2643, high concentration screen) was 99.8%. The remaining activity at 1.25 µM in experiment [2] (Well no.=2643, low concentration screen) turned out to be 97.4%.

For `Cc1nc2cc3nc(-c4cccs4)cnc3cc2n1C` [AGL 2043], the remaining activity at 3.75 µM in experiment [1] (Well no.=2309, high concentration screen) turned out to be 103%. In addition, in experiment [2] (Well no.=2309, low concentration screen), the remaining activity at 1.25 µM came out at 104%.

Consider `CC(C)[C@H]1[C@@H]2CC[C@@H](C2)[C@@H]1N` [AGN 192403 hydrochloride], for which the remaining activity at 3.75 µM in experiment [1] (Well no.=116, high concentration screen) is 104%. Besides, the remaining activity at 1.25 µM in experiment [2] (Well no.=116, low concentration screen) was found to be 101%.

Regarding `O=C(O)CCC/C=C\C[C@@H]1[C@@H](/C=C/[C@H](O)C2Cc3ccccc3C2)[C@@H](F)C[C@@H]1O` [AL-8810], the remaining activity at 3.75 µM in experiment [1] (Well no.=205, high concentration screen) was found to be 104%. In addition, the remaining activity at 1.25 µM in experiment [2] (Well no.=205, low concentration screen) was determined as 100%.

As to `Cc1noc(-c2ccc(-c3ccc(CC(=O)O)cc3)cc2)c1NC(=O)O[C@H](C)c1ccccc1` [AM095], in experiment [1] (Well no.=7815, high concentration screen), the remaining activity at 3.75 µM was 94%. Further, in experiment [2] (Well no.=7815, low concentration screen), the remaining activity at 1.25 µM came out at 101%.

As to `COc1ccc(C(=O)c2c(C)n(CCN3CCOCC3)c3cc(I)ccc23)cc1` [AM630], the remaining activity at 3.75 µM in experiment [1] (Well no.=5463, high concentration screen) turned out to be 107%; in experiment [1] (Well no.=7903, high concentration screen) it was 106%. Further, the remaining activity at 1.25 µM came out at 103% in experiment [2] (Well no.=5463, low concentration screen) and 98.5% in experiment [2] (Well no.=7903, low concentration screen).

Regarding `Cc1noc(-c2ccc(-c3ccc(CC(=O)O)cc3)cc2)c1NC(=O)O[C@H](C)c1ccccc1Cl` [AM966], the remaining activity at 3.75 µM in experiment [1] (Well no.=6941, high concentration screen) stood at 102%. In addition, in experiment [2] (Well no.=6941, low concentration screen), the remaining activity at 1.25 µM came to 104%.

`CC1(C)CCC(C)(C)c2cc(C(=O)Nc3ccc(C(=O)O)cc3)ccc21` [AM-580]: the remaining activity at 3.75 µM in experiment [1] (Well no.=4434, high concentration screen) was determined as 86%. Further, the remaining activity at 1.25 µM in experiment [2] (Well no.=4434, low concentration screen) was determined as 92.7%.

For the molecule `CN1CCCCC1Cn1cc(C(=O)c2cc([N+](=O)[O-])ccc2I)c2ccccc21` (stereo not drawn) [AM-1241], the remaining activity at 3.75 µM in experiment [1] (Well no.=5289, high concentration screen) amounted to 99%. In experiment [2] (Well no.=5289, low concentration screen), the remaining activity at 1.25 µM was determined as 101%.

In the case of `c1ccc(CNCc2ccc(CN3CCCNCCNCCCNCC3)cc2)nc1` [AMD 3465 (hexahydrobromide)], the remaining activity at 3.75 µM came out at 87.4% in experiment [1] (Well no.=7245, high concentration screen) and 92.2% in experiment [1] (Well no.=8419, high concentration screen). Moreover, the remaining activity at 1.25 µM in experiment [2] (Well no.=7245, low concentration screen) turned out to be 90.9%; in experiment [2] (Well no.=8419, low concentration screen), 98.5%.

As to `NCCCCN(Cc1nc2ccccc2[nH]1)[C@H]1CCCc2cccnc21` [AMD-070 (hydrochloride)], the remaining activity at 3.75 µM in experiment [1] (Well no.=7093, high concentration screen) came out at 100%. Besides, the remaining activity at 1.25 µM in experiment [2] (Well no.=7093, low concentration screen) was 106%.

For `CCOc1ccc(-n2c([C@@H](C)N(Cc3cccnc3)C(=O)Cc3ccc(OC(F)(F)F)cc3)nc3ncccc3c2=O)cc1` [AMG 487], the remaining activity at 3.75 µM in experiment [1] (Well no.=8651, high concentration screen) is 97.8%. For the same molecule, the remaining activity at 1.25 µM in experiment [2] (Well no.=8651, low concentration screen) was 101%.

With `CC#C[C@@H](CC(=O)O)c1ccc(OCc2cccc(-c3ccc(C(F)(F)F)cc3)c2)cc1` [AMG 837 (calcium hydrate)], the remaining activity at 3.75 µM in experiment [1] (Well no.=6944, high concentration screen) was 95.6%. In addition, the remaining activity at 1.25 µM in experiment [2] (Well no.=6944, low concentration screen) amounted to 98.4%.

Consider `Cc1csc(-c2nnc(Nc3ccc(Oc4ncccc4-c4ccnc(N)n4)cc3)c3ccccc23)c1` [AMG 900], for which the remaining activity at 3.75 µM in experiment [1] (Well no.=5023, high concentration screen) was 100%. In experiment [2] (Well no.=5023, low concentration screen), the remaining activity at 1.25 µM was determined as 97.2%.

On to `CC(=O)Nc1nc2c(Oc3cc(-c4ccc(C(F)(F)F)cc4)ncn3)cccc2s1` [AMG-517], for which the remaining activity at 3.75 µM in experiment [1] (Well no.=5176, high concentration screen) turned out to be 99.6%. For the same molecule, the remaining activity at 1.25 µM in experiment [2] (Well no.=5176, low concentration screen) is 102%.

In the case of `CNc1nccc(-c2cccnc2Oc2cc(C(=O)Nc3cccc(C(F)(F)F)c3)ccc2C)n1` [AMG-Tie2-1], the remaining activity at 3.75 µM in experiment [1] (Well no.=2788, high concentration screen) was found to be 94.9%. The remaining activity at 1.25 µM in experiment [2] (Well no.=2788, low concentration screen) amounted to 97.1%.

Regarding `c1cc(-c2cnn3cc(-c4ccc(OCCN5CCCCC5)cc4)cnc23)ccn1` [AMPK Inhibitor, Compound C], the remaining activity at 3.75 µM in experiment [1] (Well no.=2324, high concentration screen) turned out to be 103%. Besides, in experiment [2] (Well no.=2324, low concentration screen), the remaining activity at 1.25 µM was 98.4%.

As for `CC[C@H](C(=O)N1CCCC[C@H]1C(=O)O[C@H](CCc1ccc(OC)c(OC)c1)c1cccc(OCC(=O)O)c1)c1cc(OC)c(OC)c(OC)c1` [AP1867], the remaining activity at 3.75 µM in experiment [1] (Well no.=6982, high concentration screen) turned out to be 100%. The remaining activity at 1.25 µM in experiment [2] (Well no.=6982, low concentration screen) worked out at 103%.

As for `CC[C@H](C(=O)N1CCCC[C@H]1C(=O)O[C@H](CCc1ccc(OC)c(OC)c1)c1cccc(OCC(=O)NCC(CNC(=O)COc2cccc([C@@H](CCc3ccc(OC)c(OC)c3)OC(=O)[C@@H]3CCCCN3C(=O)[C@@H](CC)c3cc(OC)c(OC)c(OC)c3)c2)CN(C)C)c1)c1cc(OC)c(OC)c(OC)c1` [AP20187], the remaining activity at 3.75 µM amounted to 100% in experiment [1] (Well no.=7174, high concentration screen) and 97.5% in experiment [1] (Well no.=7696, high concentration screen). The remaining activity at 1.25 µM is 98.8% in experiment [2] (Well no.=7174, low concentration screen) and 102% in experiment [2] (Well no.=7696, low concentration screen).

Turning to `CC(C)OC(=O)N1CCC(Oc2ncnc3c2cnn3-c2ccc(S(C)(=O)=O)cc2F)CC1` [APD668], the remaining activity at 3.75 µM in experiment [1] (Well no.=6274, high concentration screen) came to 104%. Besides, the remaining activity at 1.25 µM in experiment [2] (Well no.=6274, low concentration screen) came to 105%.

Regarding `O=C(/C=C/c1cccnc1)NCCCCC1CCN(C(=O)c2ccccc2)CC1` [APO866 (FK866)], the remaining activity at 3.75 µM in experiment [1] (Well no.=5123, high concentration screen) was 94.7%. In addition, the remaining activity at 1.25 µM in experiment [2] (Well no.=5123, low concentration screen) was determined as 99%.

Take `CCN(CC)c1ncnc2c1ncn2[C@@H]1O[C@H](COP(=O)(O)OP(=O)(O)C(Br)(Br)P(=O)(O)O)[C@@H](O)[C@H]1O` [ARL 67156 trisodium salt]: in experiment [1], the remaining activity at 3.75 µM worked out at 96.3%. Moreover, in experiment [2], the remaining activity at 1.25 µM came to 96%.

`CNC(=O)c1ccc(N2C(=S)N(c3cnc(C#N)c(C(F)(F)F)c3)C(=O)C23CCC3)cc1F` [ARN-509]: the remaining activity at 3.75 µM in experiment [1] (Well no.=5169, high concentration screen) worked out at 101%. In addition, in experiment [2] (Well no.=5169, low concentration screen), the remaining activity at 1.25 µM is 105%.

`C[C@@H]1COC(Nc2ccc3ncnc(Nc4ccc(OCc5nccs5)c(Cl)c4)c3c2)=N1` [ARRY334543]: the remaining activity at 3.75 µM in experiment [1] (Well no.=5073, high concentration screen) stood at 106%. In addition, the remaining activity at 1.25 µM in experiment [2] (Well no.=5073, low concentration screen) was 102%.

Turning to `O=C1NC(=O)/C(=C/c2ccc(-c3ccc(F)cc3O)o2)S1` [AS-252424], the remaining activity at 3.75 µM in experiment [1] (Well no.=2947, high concentration screen) amounted to 97.2%. Also, the remaining activity at 1.25 µM in experiment [2] (Well no.=2947, low concentration screen) was 93.9%.

With `C=CC(=O)Nc1ccc2ncnc(Nc3ccc(OCc4cccc(F)c4)c(Cl)c3)c2c1` [AST-1306], the remaining activity at 3.75 µM in experiment [1] (Well no.=5142, high concentration screen) worked out at 100%. Besides, in experiment [2] (Well no.=5142, low concentration screen), the remaining activity at 1.25 µM came out at 101%.

As to `Clc1ccc(C2(c3ccc(-c4cn[nH]c4)cc3)CCNCC2)cc1` [AT7867], the remaining activity at 3.75 µM in experiment [1] (Well no.=5295, high concentration screen) turned out to be 96.7%. Further, in experiment [2] (Well no.=5295, low concentration screen), the remaining activity at 1.25 µM worked out at 95.9%.

For `O=C(Nc1c[nH]nc1-c1nc2ccc(CN3CCOCC3)cc2[nH]1)NC1CC1` [AT9283], the remaining activity at 3.75 µM in experiment [1] (Well no.=2884, high concentration screen) is 95.8%. Besides, the remaining activity at 1.25 µM in experiment [2] (Well no.=2884, low concentration screen) came out at 93.2%.
